Assay: Stability of crystalline compound M and Saxagliptin monohydrate form H-1 on storage, measured by HPLC
Assay type: physicochemical
Experimental: Unless stated otherwise, the HPLC peak % referred to herein were measured using a UV detection having a wavelength of 220 nm.
Instrumental and Chromatographic Conditions
Instrument: HPLC system equipped with UV detector.
• Flow rate: about 1 mL/min • Injection volume: about 10 μL • Column: Waters XBridge C8, 150 mm×4.6 mm, 3.5 μm • Column temperature: 25° C. • Detector: DAD (UV) at wavelengths 220 nm • Mobile phase: Gradient elution with Solution A and Solution B (see Table 1) • Solution A: Buffer solution. Dissolve in water about 24.0 g of sodium octyl-1-sulfonate in 1000 mL volumetric flask, make up to the volume with water and adjust pH to 3.3 with phosphoric acid. • Solution B: Acetonitrile, HPLC grade
• Stop time: 25 minutes • Post time: 5 minutes • Diluent: Prepare a solution of 25% acetonitrile, 25% methanol, and 50% of the buffer solution (the one that is used in gradient elution). The Following Chemicals (or Equivalent) Should Be Used:
• 1. Blank: Use the diluent. • 2. Sample preparation: Prepare SXG sample solution with concentration of about 1.0 mg/mL prepare in duplicate Procedure
Samples of crystalline compound M and Saxagliptin monohydrate form H-1 were prepared and the amount of Saxagliptin and the amount of cyclic amidine were measured by HPLC at time zero (=time 0). Samples of crystalline compound M and Saxagliptin monohydrate form H-1 were maintained for 2 weeks, 1 month and 2 months, at the conditions described in the following table. Afterwards, the amount of Saxagliptin and the amount of cyclic amidine was measured by HPLC.

CA = cyclic amidine (amount by HPLC) (40° C./40% RH, 1 month) | SXG = Saxagliptin (amount by HPLC) (40° C./40% RH, 1 month) | CA = cyclic amidine (amount by HPLC) (40° C./40% RH, 2 months) | SXG = Saxagliptin (amount by HPLC) (40° C./40% RH, 2 months) | CA = cyclic amidine (amount by HPLC) (40° C./40% RH, 2 weeks) | SXG = Saxagliptin (amount by HPLC) (40° C./40% RH, 2 weeks) | CA = cyclic amidine (amount by HPLC) (40° C./40% RH, Time 0) | SXG = Saxagliptin (amount by HPLC) (40° C./40% RH, Time 0) | CA = cyclic amidine (amount by HPLC) (50° C./0% RH, 1 month) | SXG = Saxagliptin (amount by HPLC) (50° C./0% RH, 1 month) | CA = cyclic amidine (amount by HPLC) (50° C./0% RH, 2 months) | SXG = Saxagliptin (amount by HPLC) (50° C./0% RH, 2 months) | CA = cyclic amidine (amount by HPLC) (50° C./0% RH, 2 weeks) | SXG = Saxagliptin (amount by HPLC) (50° C./0% RH, 2 weeks) | CA = cyclic amidine (amount by HPLC) (50° C./0% RH, Time 0) | SXG = Saxagliptin (amount by HPLC) (50° C./0% RH, Time 0) | SMILES | other results
CA = 5.8% | SXG = 86.8% | CA = 11.5% | SXG = 77.4% | CA = 4.0% | SXG = 93.1% | CA = 0.50% | SXG = 98.9% | CA = 1.3% | SXG = 96.9% | CA = 2.1% | SXG = 94.8% | CA = 1.2% | SXG = 97.8% | CA = 0.50% | SXG = 98.9% | N#C[C@@H]1C[C@@H]2C[C@@H]2N1C(=O)[C@@H](N)C12CC3CC(CC(O)(C3)C1)C2 [Saxaglitpin base monohydrate, Form H-1, (1S,3S,5S)-2-((2S)-2-Amino-2-(3-hydroxyadamantan-1-yl)-acetyl)-2-azabicyclo[3.1.0]hexane-3-carbonitrile] | RRT1.14 (impurity amount by HPLC) (40° C./40% RH, 1 month): RRT1.14 = 4.1%; RRT1.14 (impurity amount by HPLC) (40° C./40% RH, 2 months): RRT1.14 = 7.7%; RRT1.14 (impurity amount by HPLC) (40° C./40% RH, 2 weeks): RRT1.14 = 2.1%; RRT1.14 (impurity amount by HPLC) (50° C./0% RH, 1 month): RRT1.14 = 1.1%; RRT1.14 (impurity amount by HPLC) (50° C./0% RH, 2 months): RRT1.14 = 2.51%; RRT1.14 (impurity amount by HPLC) (50° C./0% RH, 2 weeks): RRT1.14 = 0.4%
CA = 0.50% | SXG = 99.0% | CA = 0.61% | SXG = 99.0% | CA = 0.53% | SXG = 99.0% | CA = 0.20% | SXG = 99.6% | CA = 0.27% | SXG = 99.4% | CA = 0.31% | SXG = 99.4% | CA = 0.25% | SXG = 99.6% | CA = 0.20% | SXG = 99.6% | CC(C)=N[C@H](C(=O)N1[C@H](C#N)C[C@@H]2C[C@@H]21)C12CC3CC(CC(O)(C3)C1)C2 [crystalline Compound M, (1S,3S,5S)-2-[(2S)-2-propan-2-ylideneamino-2-(3-hydroxy-1-adamantyl)acetyl]-2-azabicyclo[3.1.0]-hexane-3-carbonitrile] | chemical stability (compared to Saxagliptin monohydrate form H-1): enhanced chemical stability

Reference: US8501960B2, “Saxagliptin intermediates, saxagliptin polymorphs, and processes for preparation thereof” (Assia Chemical Industries Ltd., priority 2010, dated 2013)
